The values below come from publication PMC3572206 (Biomaterials, 2012).

Usually IC50 stands for the concentration that inhibits the measured activity by half.

One test has as its system MDA-1986. The experiment in a line: Cytotoxicity. The class given is cell-based, human. As to conditions: read-out: IC50: MDA-1986; 72 hrs post-addition.
The subject of another test is MDA-MB-468. The experiment in a line: Cytotoxicity. The class given is cell-based, human. The note with it: read-out: IC50: MDA-MB-468; 72 hrs post-addition.
Another test deals with MDA-1986 cells. The experiment in a line: Nitric oxide release in vitro. The class given is cell-based, human.
The test system of another test is MDA-MB-231. The experiment in a line: Cytotoxicity. The class given is cell-based, human. The note with it: read-out: IC50: MDA-MB-231; 72 hrs post-addition.
For test [1], the system named is MDA-1986 human head and neck squamous cell carcinoma xenografts.

As to “O^2-(2,4-Dinitrophenyl) 1-{[4-(2-hydroxy)ethyl]-3-methylpiperazin-1-yl}diazen-1-ium-1,2-diolate [NO2]”, the IC50 is 57 µM in the test on MDA-1986 and 27 µM in the test with MDA-MB-468.

Turning to `O=[N+]([O-])c1ccc(ON=[N+]([O-])N2CCN(CCOCCO)CC2)c([N+](=O)[O-])c1` [NO1, O^2-(2,4-Dinitrophenyl) 1-{[4-(2-(2-hydroxyethoxy))ethyl]piperazin-1-yl} diazen-1-ium-1,2-diolate], in the test with MDA-1986 cells, the “increase in release half-life compared to JS-K” value turned out to be 1 fold. Moreover, the IC50 was found to be 32 µM with MDA-MB-231, 32 µM in the test with MDA-1986 and 26 µM in the test on MDA-MB-468.

On to `CCOC(=O)N1CCN(/[N+]([O-])=N/Oc2ccc([N+](=O)[O-])cc2[N+](=O)[O-])CC1` [JS-K, O^2-(2,4-Dinitrophenyl) 1-[(4-ethoxycarbonyl)piperazin-1-yl]diazen-1-ium-1,2-diolate, reference compound], for which the IC50 with MDA-1986 worked out at 16 µM; with MDA-MB-468, 42 µM. The “progressive disease (PD) rate” value in test [1] (10 mg/kg, Sugar-NO1 s.c., JS-K i.v.) is recorded as 100%. The “animals euthanized (tumor size exceeding 1000 mm^3 or necrosis of the injection site on the tail)” value in test [1] (within 7 weeks) was 100%.
